Measurements published in patent publication US10787413B2, “Derivatives of curcuminoids and use thereof as an anticancer agent” (CHINA MEDICAL UNIVERSITY, priority 2016, dated 2020).
Read-outs that look alike come from different tables or passages of the source.

Key:
[1] = system: MDA-MB-231 Xenograft
Procedure: Female nu/nu mice (5 weeks old) were from National Laboratory Animal Center, Taipei, Taiwan. […] MDA-MB-231 breast cancer cells (5×10^6 cells per mouse) were suspended in 0.1 ml of Matrigel solution (50% (v/v) Matrigel in PBS) and inoculated into the mammary fat pads of the mice. […] Compounds was administered P.O. once every day for 32 days. Tumor size and mouse body weight were measured once every 4 days, and tumor volume (mm3) was calculated using the equation: length×(width)^2×0.5. At the end of experiments, mice were sacrificed and tumor nodules were dissected and weighed.

[2] = system: various breast cancer cell lines; assay: Cell viability, various breast cancer cell lines (21a compared with curcumin); format: cell-based; conditions: TNBC cells
Procedure: (§1) Cell viability was evaluated by measuring the reduction in MTT to yield blue formazan. Cells were cultured in 96-well plates, allowed to attach overnight, and then treated with compounds. After treatment, MTT solution (1 mg/ml) was added to each well, and plates were incubated for another 4 h. Medium were removed, blue formazan was dissolved in DMSO, and the absorbance was read at 570 nm^20.

[3] = system: MDA-MB-231 Xenograft; assay: In vivo antitumor activity, MDA-MB-231 Xenograft nude mice model
Procedure: Female nu/nu mice (5 weeks old) were from National Laboratory Animal Center, Taipei, Taiwan. Mice were maintained under the procedures and guidelines from the Institutional Animal Care and Use Committee of the National Health Research Institutes, Taipei, Taiwan. All experiments were supervised under the Institutional Animal Care and Use Committee, China Medical University, Taichung, Taiwan. MDA-MB-231 breast cancer cells (5×10^6 cells per mouse) were suspended in 0.1 ml of Matrigel solution (50% (v/v) Matrigel in PBS) and inoculated into the mammary fat pads of the mice. […] Compounds was administered P.O. once every day for 32 days. Tumor size and mouse body weight were measured once every 4 days, and tumor volume (mm3) was calculated using the equation: length×(width)^2×0.5. At the end of experiments, mice were sacrificed and tumor nodules were dissected and weighed.

[4] = system: MDA-MB-157; assay: Cell viability, MDA-MB-157 breast cancer cells; format: cell-based; conditions: Homo sapiens; MDA-MB-157 (Triple negative), treated for 24 h
Procedure: as §1

[5] = system: MDA-MB-231 breast cancer cell; assay: MTT cell viability assay, MDA-MB-231 breast cancer cell; format: cell-based, human; conditions: for IC50: Homo sapiens
Procedure: Cell viability was evaluated by measuring the reduction in MTT to yield blue formazan. Cells were cultured in 96-well plates, allowed to attach overnight, and then treated with compounds. After treatment, MTT solution (1 mg/ml) was added to each well, and plates were incubated for another 4 h.

[6] = system: MDA-MB-231 cells; assay: Cell cycle distribution analysis (PI, flow cytometry); format: cell-based, human; conditions: 5 μM, 24 h
Procedure: For cell cycle and sub-G1 (apoptosis) determinations, the harvested cells were fixed gently by putting 70% ethanol in 4° C. overnight and then re-suspended in PBS containing 40 μg/ml PI and 0.1 mg/ml RNase and 0.1% Triton X-100 in dark room for 30 min at 37° C. Those cells were analyzed with a flow cytometer equipped with an argon ion laser at 488 nm wavelength^22.

[7] = Stability of 21a in the culture media; format: physicochemical; conditions: media after 72 h treatment analyzed for curcumin
Procedure: Besides, the stability of 21a in the culture media was tested.

[8] = system: MDA-MB-231 cells; assay: Immunofluorescence staining LC3B and p62; format: cell-based, human; conditions: 5 μM and 10 μM, 24 h
Procedure: Cells were grown on sterile coverslips placed in a 6-well plate. After treatments, cells were fixed with 4% (w/v) paraformaldehyde and permeabilized with 0.2% (v/v) Triton X-100 in PBS. After blocking with 2% (w/v) bovine serum albumin in PBS, […] was detected using anti-LC3B and anti-p62 antibody followed by reaction with FITC or PE-conjugated secondary antibody (BD Biosciences). Coverslips were mounted on glass slides with Prolong Gold Antifade Reagent containing DAPI (Invitrogen), and fluorescence images were taken on a Leica Microsystems TCS SP2 Confocal Spectral microscope^26.

For `COc1cc(/C=C/C(=O)/C=C(O)/C=C/c2ccc(OC(=O)C(C)(CO)CO)c(OC)c2)ccc1OC(=O)C(C)(CO)CO` [Compound 21a, ((1E,3Z,6E)-3-Hydroxy-5-oxohepta-1,3,6-triene-1,7-diyl)bis(2-methoxy-4,1-phenylene) bis(3-hydroxy-2-(hydroxymethyl)-2-methylpropenoate)], the “tumor weight smaller than that of the control group” value ([1]; 21a PO combined with Doxorubicin IP 1 mg/kg/day) was 80%, the “reduction of MDA-MB-231 tumor weight compared with control group” value ([1]; 21a alone, PO (50 mg/kg/day)) was 60% and the “effect of combined use on antitumor activity of Doxorubicin” value ([1]; 21a with Doxorubicin) was “enhance the antitumor activity of Doxorubicin”. The “times greater inhibitory activity than curcumin” value [2] was 3.4-7.4 times, the “antitumor activity, fold more potent than curcumin” value ([3]; MDA-MB-231 Xenograft nude mice model) was 10 fold and the antitumor activity ([3]; PO 5 mg/kg/day) was “significant antitumor activity”. For the same molecule, the inhibitory efficacy ([3]; PO 10 mg/kg/day) was “equivalent to 100 mg/kg/day of curcumin”, the “tumor weight lighter than that of the control group” value ([3]; PO 50 mg/kg/day) was 60% and the “inhibition of MDA-MB-231 tumor growth” value ([3]; PO 5, 10, 25 and 50 mg/kg/day) was “dose- and time-dependent inhibition”. For the same molecule, the “body weight, behavior change and blood chemistry (serology detection)” value ([3]; treated vs untreated control group during antitumor evaluation) was “no significant difference”, the IC50 [4] was 9.23 ± 0.11 µM and the “viability of MDA-MB-231 cells” value ([5]; 0, 1, 3, 5 and 10 μM, 24 h, concentration-dependent) was “significantly reduced”. For the same molecule, the “combination effect with Doxorubicin” value ([5]; 21a in combination with Doxorubicin, MDA-MB-231 cells) was “Synergistic anticancer effect”, the IC50 ([5]; MDA-MB-231, treated 24 hours, read-out: IC50 24 hours) was 5.37 ± 1.22 µM and the IC50 ([5]; MDA-MB-231, treated 48 hours, read-out: IC50 48 hours) was 3.06 ± 0.18 µM. The IC50 ([5]; MDA-MB-231, treated 72 hours, read-out: IC50 72 hours) was 2.67 µM, the “times more potent than curcumin (IC50)” value ([5]; MDA-MB-231, 72 h treatment, curcumin IC50 16.23 μM) was 6.2 times and the G2/M cell population [6] was “significantly increased”. The “stability in the culture media” value [7] was “stable” and the “LC3B-positive and p62-positive cells” value [8] was “significantly increased”.
